Measurements: US7119213B2, “Pharmacologically active isolated or purified dauer pheromone compound for controlling aging and stress and method for isolating and characterizing the same” (priority 2002, dated 2006)

Test system: C. elegans
Test: Dauer inducing activity assay (dauer test on worms grown in S medium)
Format: in vivo
Method: To examine whether this ethanol extract (A) can induce dauer larva phase, dauer test is performed on the worms that had been grown in the S medium.
Briefly, the dried A was dissolved in double distilled water and extracted with the equal volume of ethyl acetate. This extraction procedure was repeated 5 times.
After confirming the dauer inducing activity of B, extracts obtained by the above-described process are loaded onto a silica-gel absorption column which has been equilibrated with hexane: ethyl acetate: methanol=7:7:1. An active form of dauer pheromone (C) that were adsorbed onto the column was eluted with methanol.
To further purify C, HPLC separation is carried out using amine column. Briefly, the fraction C is dissolved in methanol and diluted with double distilled water (MeOH: ddH2O=1:1). This solution containing C is loaded onto the amine column, which is equilibrated with isopropanol solution (isopropanol: water=1:1). A dauer pheromone fraction bound to the column (Fraction D) was eluted with a gradient solution of the same solvent.
Table 5 outlines the result of dauer inducing assay using the active fractions D from the amine column chromatography. Finally, a dauer pheromone (E) is completely isolated and purified refined by size exclusion column chromatography using methanol as an eluent solution.
The pure dauer pheromone characterized by the above described procedures is defined as the structural formula I, and its chemical formula is 6-(3,5-dihydroxy-6-methyl-tetrahydro-pyran-2-yloxy)-heptanoic acid or its sodium salt.

CC(CCCCC(=O)O)OC1OC(C)C(O)CC1O (stereo not drawn) [W251 column fraction (purified form), 6-(3,5-dihydroxy-6-methyl-tetrahydro-pyran-2-yloxy)-heptanoic acid]
Formation of dauer larva stage (%) (dauer test on C. elegans): 100%
Population in dauer larva stage (number of worms in dauer larva stage in the dauer test): 62
Induction of dauer phase (in words) (pure pheromone added onto the media): markedly induce the worm into dauer phase
